Results taken from patent US20120321584A1, “PROCESSES FOR PREPARING AMINE SALTS OF KMUP-3 AND USE THEREOF” (KAOHSIUNG MEDICAL UNIVERSITY, priority 2011, published 2012).

Experiments:
[1] = tested on: electrically-stimulated left atria; experiment: Electrically-stimulated beating left atrium, organ bath; format: cell-based, guinea-pig; settings: 0.1~30 μM, electrical stimulation 1 Hz
PKA = PKA expression in electrically-stimulated left atria, Western blotting; format: cell-based, guinea-pig
Protocol: (§1) Protein extraction and Western blotting analysis. Briefly, after incubation with test agents in an organ bath, isolated beating atrium was frozen and pulverized to a fine powder at the temperature of liquid nitrogen. Atrium powders were then homogenized in protein extraction reagent (Pierce Biotechnology, Inc., Rockford, Ill.) by sonication. The samples were sonicated 10 sec three times and centrifuged at 13,000 rpm at 4° C. for 30 min. The protein concentrations of supernatants were determined by using bovine serum albumin as the standard. The cell extracts were then boiled in a ratio of 4:1 with sample buffer (Tris 100 mM, pH 6.8; glycerol 20%, Sodium dodecyl sulfate (SDS) 4% and bromophenol blue 0.2%). Electrophoresis was performed using 10% SDS-PAGE and transferred to nitrocellulose membranes (Millipore Corp., Billerica, Mass.). The membrane was blocked with Tris-buffered saline (TBS; 20 mM Tris and 137 mM NaCl, pH 7.6) containing 0.1% Tween 20 (TTBS) and 5% nonfat milk at room temperature for 1 h, washed with TTBS, and then incubated overnight at 4° C. in the appropriate primary antibody for PKARI, RhoA, ROCKII, p-CIP-17, CPI-17 and PKG1α1β. The membranes were washed in TTBS before being incubated with horseradish peroxidase-conjugated antibody against mouse, goat, or rabbit IgG for 1 hr. Membranes were then washed in TTBS and developed with the enhanced chemiluminescence for the detection of the specific antigen. The intensity of the bands was measured by densitometry. eNOS or phosphorylated eNOS were extracted from cell culture of neonatal myocytes, PA ring and aortic ring (2-3 mm) of rats and measured by Western blotting analysis.
(§2) PK, ROCKII and CIP-17 expression and pretreatment of beating left atrium. To examine whether KMUP-3 or KMUP-3 amine salt affects the protein expression in beating atrium, PKA, ROCKII, PKG and phosphorylated CIP-17 was determined by Western blotting, respectively. […]

cAMP = cAMP in neonatal myocytes; format: cell-based, rat
Protocol: (§3) eNOS/p-NOS and cAMP/cGMP in neonatal myocytes. To determine the role of the NO/cGMP-pathway in heart, neonatal rat myocyte protein was extracted followed by Western blotting to measure the expression of eNOS, phosphorylated eNOS (p-eNOS), cAMP, and cGMP (FIG. 14 A-14 B and FIG. 15 A-15 B). KMUP-3 increased eNOS and p-eNOS in neonatal rat cardiomyocytes and the effect was reduced by L-NAME (100 μM)-pretreatment (FIG. 14A and FIG. 14B). KMUP-3 increased both cAMP and cGMP.

L-type Ca2+ channels = experiment: Ca2+ entry currents in H9c2 cells, whole cell patch-clamp; format: cell-based, rat; settings: H9c2 cells, KMUP-3 1-100 μM
Source text: To measure the ICa through L-type Ca^2+ channels, whole cell patch-clamp electrophysiology was used in rat heart-derived H9c2 cells as previously described. In brief, H9c2 cells were placed in a recording dish and perfused with a bath solution containing (in mM): 135 tetraethylammonium (TEA)-Cl, 1.8 CaCl2, 2 MgCl2, 10 glucose, and 10 HEPES (pH 7.4, Tris). […] Negative pressure was briefly applied to rupture the membrane and a gigaohm seal was obtained.
H9c2 cells were clamped at −80 mV with step depolarizations (300 ms) from −80 to 0 mV to evoke whole-cell ICa. Voltage clamped cells were equilibrated for 15 min prior to experimentation. Membrane currents were recorded on an Axopatch 700A amplifier (Axon Instruments, Union City, Calif.), filtered at 1 kHz using a low-pass Bessel filter, digitized at 5 kHz and stored on a computer for subsequent analysis with Clampfit 9.0. Following equilibration, ICa was monitored in the presence and absence of KMUP-3 or KMUP-3 amine salt (1, 10, 100 μM). To ascertain whether PKG or ROCK signaling was involved in the KMUP-3-induced decreases in ICa, H9c2 cells were incubated for 15 min with the combination of KMUP-3 or KMUP-3 amine salt (10 μM) and PKG antagonist KT5823 (3 μM) or ROCK inhibitor Y-27632 (50 μM). All electrical recordings were performed at room temperature.

eNOS = eNOS expression in aorta and pulmonary artery rings, Western blotting; format: cell-based, rat; settings: aorta and pulmonary artery (PA) ring
Protocol: (§4) ROCKII expression and vascular resistance. To determine whether KMUP-3's ROCKII activity increased vascular resistance, aorta and pulmonary artery (PA) ring protein was extracted followed by Western blotting to measure the expression ROCKII and eNOS.
as §1, with “The membrane was blocked with Tris-buffered saline (TBS; 20 mM Tris and 137 mM NaCl, pH 7.6) containing 0.1% Tween 20 (TTBS) and 5% nonfat milk at room temperature for 1 h, washed with TTBS, and then incubated overnight at 4° C. in the appropriate primary antibody for PKARI, RhoA, ROCKII, p-CIP-17, CPI-17 and PKG1α1β. The membranes were washed in TTBS before being incubated with horseradish peroxidase-conjugated antibody against mouse, goat, or rabbit IgG for 1 hr. Membranes were then washed in TTBS and developed with the enhanced chemiluminescence for the detection of the specific antigen.” left out

ROCKII = ROCKII expression in aorta and pulmonary artery rings, Western blotting; format: cell-based, rat; settings: aorta and pulmonary artery (PA) ring
Protocol: as §4
as §1, with “The membrane was blocked with Tris-buffered saline (TBS; 20 mM Tris and 137 mM NaCl, pH 7.6) containing 0.1% Tween 20 (TTBS) and 5% nonfat milk at room temperature for 1 h, washed with TTBS, and then incubated overnight at 4° C. in the appropriate primary antibody for PKARI, RhoA, ROCKII, p-CIP-17, CPI-17 and PKG1α1β. The membranes were washed in TTBS before being incubated with horseradish peroxidase-conjugated antibody against mouse, goat, or rabbit IgG for 1 hr. Membranes were then washed in TTBS and developed with the enhanced chemiluminescence for the detection of the specific antigen.” left out

CPI-17 = CPI-17 phosphorylation in electrically stimulated beating left atria; format: cell-based, guinea-pig
Protocol: as §1, with “The membrane was blocked with Tris-buffered saline (TBS; 20 mM Tris and 137 mM NaCl, pH 7.6) containing 0.1% Tween 20 (TTBS) and 5% nonfat milk at room temperature for 1 h, washed with TTBS, and then incubated overnight at 4° C. in the appropriate primary antibody for PKARI, RhoA, ROCKII, p-CIP-17, CPI-17 and PKG1α1β. The membranes were washed in TTBS before being incubated with horseradish peroxidase-conjugated antibody against mouse, goat, or rabbit IgG for 1 hr. Membranes were then washed in TTBS and developed with the enhanced chemiluminescence for the detection of the specific antigen.” left out
as §2

cGMP = cGMP in neonatal myocytes; format: cell-based, rat
Protocol: as §3

[2] = tested on: phosphorylated eNOS (p-eNOS); experiment: Phosphorylated eNOS expression in neonatal myocytes, Western blotting; format: cell-based, rat; settings: neonatal rat cardiomyocytes
Protocol: as §3
Protein extraction and Western blotting analysis. Briefly, after incubation with test agents in an organ bath, isolated beating atrium was frozen and pulverized to a fine powder at the temperature of liquid nitrogen. Atrium powders were then homogenized in protein extraction reagent (Pierce Biotechnology, Inc., Rockford, Ill.) by sonication. The samples were sonicated 10 sec three times and centrifuged at 13,000 rpm at 4° C. for 30 min. The protein concentrations of supernatants were determined by using bovine serum albumin as the standard. […] The intensity of the bands was measured by densitometry. eNOS or phosphorylated eNOS were extracted from cell culture of neonatal myocytes, PA ring and aortic ring (2-3 mm) of rats and measured by Western blotting analysis.

[3] = tested on: isolated spontaneously beating right atrium; experiment: Spontaneously beating right atrium, organ bath; format: cell-based, guinea-pig; settings: 0.1-30 μM
Protocol: Organ bath experiments and tissue procurement. Guinea-pigs were killed by a blow on the head. Their hearts were quickly excised and trimmed of excess tissues. The atrium was carefully removed and placed at room temperature (20˜25° C.) in a Krebs solution of the following composition (mM): NaCl 113, KCl 4.8, CaCl2 2.2, KH2PO4 1.2, MgCl2 1.2, NaHCO3 25, dextrose 11.0; bubbled with a 95% O2+5% CO2 mixture, followed by separation of right and left atrium for subsequent experiments.
Spontaneously beating right atrium was dissected from the heart and mounted in a 10 ml organ bath with one end fixed and the other end connected to a force displacement transducer (Grass, Model FT03). The frequency of contraction was measured on a separate channel by a tachometer (Coulbourn, Model S77-26) connected to a high-speed videograph (Coulbourn, AT L19-69). These experiments were carried out at 32.5° C. in Krebs solution. The atria strip was pre-stretched to a baseline tension of 0.5 g and equilibrated for 90 min in aerated (95% O2+5% CO2) Krebs solution before the experimental protocols were initiated. The atria were then allowed a 30-60 min washout period to re-stabilize. KMUP-3 or KMUP-3 amine salt (0.1, 1.0, 10, 100 μM) were then cumulatively added to the organ bath. […]

RhoA = RhoA activation of neonatal myocytes, affinity precipitation assay; format: cell-based, rat
Protocol: RhoA activation was determined using an affinity precipitation assay, which binds only the active GTP-bound form of Rho. In brief, sub-confluent neonatal rat myocytes were grown to approximately 85-90% confluence, cells were exposed to KMUP-3 or KMUP-3 amine salt with 10% FBS for 90 min at 37 before addition of lysis buffer (25 mM HEPES, pH 7.5, 150 mM NaCl, 1% Igepal CA-630, 10 mM MgCl2, 1 mM EDTA and 10% glycerol, 1 Ag/ml aprotinin, 10 Ag/ml leupeptin and 1 mmol/l […]) for 15 min at 4, cell lysates were clarified by centrifugation at 13000 g at 4 for 10 min, and equal volume of lysates were incubated with agarose conjugated rhotekin-RBD for 45 min at 4, then washed three time with lysis buffer. Agarose beads were boiled in SDS-PAGE sample buffer to release active RhoA in samples were resolved on a 12% polyacrylamide gel followed by immunoblotting with anti-Rho A (clone 55).

**Q.** What does the source list for `Cn1c(=O)c2c(ncn2CCN2CCN(c3ccc([N+](=O)[O-])cc3)CC2)n(C)c1=O` [KMUP-3, 7-[2-[4-(4-nitrobenzene)piperazinyl]ethyl]-1,3-dimethylxanthine]?
**A.** Left atrium contractility [1]: concentration-dependently increased; PKA expression (PKA; FIG. 13B, concentration not given): significantly increased; PKA expression (PKA; KMUP-3 0.1-10 μM): significantly increased; cAMP (cAMP): increased; Inward currents (Ca2+ entry) (L-type Ca2+ channels): concentration-dependently reduced; Vascular eNOS expression (eNOS): did increase; Vascular ROCKII expression (ROCKII): did not increase; Phosphorylation of CPI-17 (CPI-17): concentration-dependently increased; cGMP (cGMP): increased; cGMP increase compared with cAMP increase (cGMP): increased more than the former; p-eNOS expression [2]: increased; Chronotropic effect (beating frequency) [3]: decreased; Inotropic effect (contraction force) [3]: concentration-dependently increased; Rho A activation (active GTP-bound form) (RhoA): increased
